Numbered stars: 1 amine (or outer) side, 2 acyl side, 3 side chain; on linkers, the order of the positions; unused ones are H or OH. Bridge positions count the residues as written; N and C are the ends. Square brackets hold non-standard residues; d marks the D form. Peptide text beside a SMILES is read from it. I, II: the chains in the order shown. Actinocin(9to1) = Cc1c2oc3c(C)ccc(C(=O)[*:1])c3nc-2c(C(=O)[*:2])c(N)c1=O; NMeV = CN[C@H](C(=O)O)C(C)C; Sar = CNCC(=O)O
Test system: trout bactenecin gene
Test: RT-PCR analysis of trout bactenecin (cathelicidin) expression in stimulated head kidney leucocytes
Type: cell-based, rainbow trout
Conditions: for effect on LPS-stimulated expression of trout bactenecin: added 3 h after LPS stimulation (5 μg/ml), FIG. 14
Experimental: Rainbow trout head kidney leucocytes were obtained by disrupting the head kidney tissue through a 100 μm nylon mesh. After washing, the leucocytes were suspended in L15 medium (Gibco) and stimulated as follows: • (A) LPS time course: Cells were stimulated with 5 μg/ml of E. coli 0127:B8 lipopolysaccharide (LPS, Sigma) for different time periods (0, 0.5 h, 1 h, 2 h, 3 h, 4 h). • (B) Transcription/translation inhibition: Streptomyces actinomycin D (Sigma) at 100 ng/ml was added to the cells after 3 h of LPS induction (5 μg/ml) to inhibit transcription. Alternatively cycloheximide at 10 μg/ml was added to the cells after 3 h of LPS stimulation (as above) to inhibit translation. • (C) Different inducers: 5 μg/ml of Phytohemagglutinin (PHA, Sigma), 25 ng/ml of Phorbol Myristate Acetate (PMA, Sigma) alone, or in combination with 5×10^−7M of Calcium Ionophore (Sigma) were added to the cells for 4 h.
At the end of the relevant time period, total RNA was isolated from approximately 2×10^7 cells, with RNAzol B (Biogenesis) according to the manufacturer's instructions. The RNA was then reverse transcribed to cDNA and the product used as template in PCRs for the trout cathelicidin gene and β-actin as a positive control. The primers used for the amplification of the cathelicidin gene were fF1 (5′-[…]-3′ SEQ ID NO: 80) and R1 (5′-[…]-3′ SEQ ID NO: 81), and for the β-actin were forward (5′-ATGGAAGATGAAATCGCC-3′ SEQ ID NO: 82) and reverse (5′-TGCCAGATCTTCTCCATG-3′ SEQ ID NO: 83). The PCR reaction mix was as follows: 5 μl of phage mix, 1.5 μl 10 mM dNTPs mix, 0.125 μl of 5 units/μl Taq DNA Polymerase, 2.5 μl 10×NH4 buffer, 0.75 μl 50 mM MgCl2, 1.5 μl forward primer, 1.5 μl reverse primer and 12.125 μl of dH2O. The cycling protocol was as follows: initial melting at 94° C. for 4 min, followed by 30 cycles of 94° C. for 45 sec, 60° C. for 45 sec, 72° C. for 1 min, with a final elongation at 72° C. for 10 min. The expected size of the products was 320 bp for the cathelicidin gene and 260 bp for β-actin.

`C[C@@H]1C[C@@H]([C@H](O)CC2CC(=O)NC(=O)C2)C(=O)[C@@H](C)C1` [Cycloheximide, cycloheximide] was tested, and the “effect on LPS-stimulated expression of trout bactenecin” value was “did not induce a superinduction”.
For `CCCCCCCCCCCCCC(=O)O[C@@H]1[C@@H](C)[C@@]2(O)[C@@H](C=C(CO)C[C@]3(O)C(=O)C(C)=C[C@@H]23)[C@@H]2C(C)(C)[C@]12OC(C)=O` [PMA, Phorbol Myristate Acetate], the “induction of trout bactenecin expression in leucocytes” value (after 4 h of induction, FIG. 13) was “only PMA+calcium ionophore induced expression”.
In the case of `Cc1c2oc3c(C)ccc(C(=O)N[C@@H]4C(=O)N[C@H](C(C)C)C(=O)N5CCC[C@H]5C(=O)N(C)CC(=O)N(C)[C@@H](C(C)C)C(=O)O[C@@H]4C)c3nc-2c(C(=O)N[C@@H]2C(=O)N[C@H](C(C)C)C(=O)N3CCC[C@H]3C(=O)N(C)CC(=O)N(C)[C@@H](C(C)C)C(=O)O[C@@H]2C)c(N)c1=O` [actinomycin D] (I: T[dV]P[Sar][NMeV] / II: T[dV]P[Sar][NMeV]; ester I:1-I:C, II:1-II:C; linker I:N-II:N via Actinocin(9to1)), the “effect on LPS-stimulated expression of trout bactenecin” value is reported as “inhibited completely”.
